Test results published in US20130231262A1, “ENGINEERED PROTEIN: "2-COLOR SERCA", AN ION-MOTIVE ATPase FUSED TO CERULEAN AND YELLOW FLUORESCENT PROTEIN” (LOYOLA UNIVERSITY CHICAGO, priority 2012, published 2013).

Experiments:
[1] = molecular target: T1, 2-color SERCA (construct 509) (Canis lupus familiaris, UniProt O46674); assay: Tg titration of 2-color SERCA FRET change in AAV-293 cells; assay type: cell-based, canine
T1 construct: other: Tg-dependent FRET change of construct 509; mCerulean (Cer) was fused to the N-terminus of canine SERCA2a; fused on or other part: mCerulean at the N-terminus
Description: One consequence of the slow FRET response at low concentrations of Tg is that the apparent EC50 decreased over time. This is evident in FIG. 8B as a left shift in the binding curve with time. This change is quantified in FIG. 8C. The apparent upper limit estimate of EC50 (obtained from the final EC50 value) was approximately 100 nM, which is compatible with the subnanomolar affinity of the Tg-SERCA complex.

[2] = system: 2-color SERCA (construct 509); conditions: cited from earlier work

T1 sequence (O46674 whole entry, the tested form may be a part): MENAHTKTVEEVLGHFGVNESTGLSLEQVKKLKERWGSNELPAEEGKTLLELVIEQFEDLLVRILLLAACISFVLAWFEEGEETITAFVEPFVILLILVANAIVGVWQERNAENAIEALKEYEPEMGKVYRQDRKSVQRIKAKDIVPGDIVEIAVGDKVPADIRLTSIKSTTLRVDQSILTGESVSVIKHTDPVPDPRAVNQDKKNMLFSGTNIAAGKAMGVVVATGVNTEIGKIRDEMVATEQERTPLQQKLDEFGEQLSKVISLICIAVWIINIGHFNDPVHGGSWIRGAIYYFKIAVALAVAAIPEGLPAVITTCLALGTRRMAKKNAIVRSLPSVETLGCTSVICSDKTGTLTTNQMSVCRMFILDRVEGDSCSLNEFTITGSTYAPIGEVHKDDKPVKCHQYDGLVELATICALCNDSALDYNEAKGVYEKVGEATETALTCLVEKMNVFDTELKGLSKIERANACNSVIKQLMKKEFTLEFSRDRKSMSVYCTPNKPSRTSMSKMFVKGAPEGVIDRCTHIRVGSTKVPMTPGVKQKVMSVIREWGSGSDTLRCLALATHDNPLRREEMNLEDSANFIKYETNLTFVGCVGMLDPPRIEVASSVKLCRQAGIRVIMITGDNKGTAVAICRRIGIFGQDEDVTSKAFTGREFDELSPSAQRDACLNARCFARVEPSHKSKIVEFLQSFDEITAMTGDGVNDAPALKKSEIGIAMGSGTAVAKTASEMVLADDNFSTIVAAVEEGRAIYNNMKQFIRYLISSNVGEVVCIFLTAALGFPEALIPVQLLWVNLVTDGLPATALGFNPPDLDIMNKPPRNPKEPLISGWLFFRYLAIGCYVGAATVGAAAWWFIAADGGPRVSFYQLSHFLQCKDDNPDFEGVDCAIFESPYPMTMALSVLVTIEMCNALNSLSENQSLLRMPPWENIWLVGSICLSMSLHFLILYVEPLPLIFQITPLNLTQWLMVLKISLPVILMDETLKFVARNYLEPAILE

Compound: C/C=C(/C)C(=O)O[C@H]1C(C)=C2[C@H]([C@@H]1OC(=O)CCCCCCC)[C@@](C)(OC(C)=O)C[C@H](OC(=O)CCC)[C@@]1(O)[C@H]2OC(=O)[C@@]1(C)O [Tg, thapsigargin]
- EC50 [1]: ~100 nM
- affinity of the Tg-SERCA complex [2]: subnanomolar
